Usually Ki stands for a measure of affinity in units of concentration, obtained from inhibition or displacement.

Among the targets are Carbonic anhydrase 6 (Homo sapiens, UniProt P23280); Carbonic anhydrase 2 (Homo sapiens, UniProt P00918); Carbonic anhydrase 1 (Homo sapiens, UniProt P00915).
Common to all, as to assay: CA Inhibition Assay
Common to all, as to conditions: pH 7.5; 25 °C

Carbonic anhydrase 1, sequence (P00915 whole entry): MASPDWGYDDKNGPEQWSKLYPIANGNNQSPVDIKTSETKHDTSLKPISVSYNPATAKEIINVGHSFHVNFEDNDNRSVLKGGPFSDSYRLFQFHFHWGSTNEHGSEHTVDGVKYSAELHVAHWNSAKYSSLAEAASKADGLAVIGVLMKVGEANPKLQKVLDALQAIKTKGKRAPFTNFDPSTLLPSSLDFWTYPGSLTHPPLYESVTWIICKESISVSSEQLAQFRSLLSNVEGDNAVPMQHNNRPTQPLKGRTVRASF
Carbonic anhydrase 6, sequence (P23280 whole entry): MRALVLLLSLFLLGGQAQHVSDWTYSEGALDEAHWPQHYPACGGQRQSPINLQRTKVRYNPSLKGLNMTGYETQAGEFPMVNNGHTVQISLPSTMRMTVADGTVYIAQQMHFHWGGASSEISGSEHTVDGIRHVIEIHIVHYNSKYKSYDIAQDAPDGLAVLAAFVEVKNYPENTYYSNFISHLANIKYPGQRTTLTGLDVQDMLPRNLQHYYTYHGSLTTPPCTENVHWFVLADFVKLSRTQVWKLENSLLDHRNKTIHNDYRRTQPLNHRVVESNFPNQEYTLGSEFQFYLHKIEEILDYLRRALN

Consider `Cc1c(CCO)sc[n+]1C` [CA inhibitor, 1], for which the figures for the Ki on Carbonic anhydrase 6, at Carbonic anhydrase 2 and at Carbonic anhydrase 1 were 593 nM, 784 nM and 2270 nM, respectively.
With `Cc1c(CCO)sc[n+]1Cc1ccccc1` [CA inhibitor, 2], the Ki on Carbonic anhydrase 6 was determined as 128 nM; on Carbonic anhydrase 2 it was 105 nM; on Carbonic anhydrase 1, 1150 nM.
On to `Cc1ncc(C[n+]2csc(CCO)c2C)c(N)n1` [Vitamin B 1], for which the Ki came out at 62 nM on Carbonic anhydrase 6, 85 nM at Carbonic anhydrase 2 and 380 nM at Carbonic anhydrase 1.
